# Measurements published in patent US8987195B2 (priority 2012, dated 2015).
# Where two headings read alike, the source gives them in different places.
# What was measured:
# [1] = tested on: HCV genotype 1b replicon; assay: HCV replicon assay, genotype 1b replicon EC50; assay type: cell-based, Hepatitis C virus; conditions: Hepatitis C virus, genotype 1b replicon, read-out: EC50 [gt-1b]
# How it was run: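 Readout was replicon RNA copy number, by 32P-probe protection or TaqMan normalized to cellular cyclophilin A RNA, or luciferase activity for luciferase:Neo^r fusion lines. Cells were exposed to serially diluted compound for 24-48 hours without G418, then washed and lysed. EC50 derived from four-parameter fit relative to DMSO.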
# [2] = target: HCV NS3/4A protease genotype 1b (Hepatitis C virus genotype 1b, UniProt P26663); assay: HCV NS3/4A protease time-resolved fluorescence (TRF) assay, Ki against genotype 1b; assay type: biochemical; conditions: IC50 [gt-1b] (nM), NS3/4A genotype 1b, enzyme 0.2 nM
# How it was run: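 Ki values come from IC50 fits corrected for substrate concentration and KM. The time-resolved fluorescence protease reaction used 25 nM peptide substrate, 2.5 h, room temperature, pH 7.5 HEPES buffer, after 30 min enzyme–inhibitor preincubation.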
# Chain of HCV NS3/4A protease genotype 1b (P26663 1027-1657): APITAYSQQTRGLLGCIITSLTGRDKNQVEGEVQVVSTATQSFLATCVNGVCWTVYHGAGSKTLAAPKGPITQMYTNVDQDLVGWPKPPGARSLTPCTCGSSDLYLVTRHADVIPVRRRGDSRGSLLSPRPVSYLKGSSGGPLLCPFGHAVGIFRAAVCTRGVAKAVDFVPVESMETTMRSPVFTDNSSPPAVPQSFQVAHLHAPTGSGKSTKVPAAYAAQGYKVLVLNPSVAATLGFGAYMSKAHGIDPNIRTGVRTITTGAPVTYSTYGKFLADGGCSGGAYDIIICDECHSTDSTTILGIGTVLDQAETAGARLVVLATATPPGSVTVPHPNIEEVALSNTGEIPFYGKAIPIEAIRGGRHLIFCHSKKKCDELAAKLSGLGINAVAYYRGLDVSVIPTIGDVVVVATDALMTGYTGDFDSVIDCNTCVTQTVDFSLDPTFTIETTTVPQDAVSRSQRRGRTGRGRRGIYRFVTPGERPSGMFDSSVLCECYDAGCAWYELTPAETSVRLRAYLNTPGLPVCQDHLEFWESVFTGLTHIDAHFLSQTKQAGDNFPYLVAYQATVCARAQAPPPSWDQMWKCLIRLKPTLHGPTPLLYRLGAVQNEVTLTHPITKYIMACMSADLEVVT
# Chain of HCV NS3/4A protease genotype 1b (P26663 1658-1711): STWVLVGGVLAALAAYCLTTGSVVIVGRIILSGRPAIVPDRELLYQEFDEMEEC
structure (smiles),measurement,setting,value
"CC(C)COC(=O)N[C@H]1CCCCC/C=C\[C@@H]2C[C@@]2(C(=O)NS(=O)(=O)C2(C)CC2)NC(=O)[C@@H]2C[C@]3(CCc4c(c(C5CC5)nc5c(F)cccc45)O3)CN2C1=O [Example 151, 2-methylpropyl [(2R,6S,12Z,13aS,14aR,16aS)-5′-cyclopropyl-7′-fluoro-14a-{[(1-methylcyclopropyl)sulfonyl]carbamoyl}-5,16-dioxo-1,1′,2′,5,6,7,8,9,10,11,13a,14,14a,15,16,16a-hexadecahydrospiro[cyclopropa[e]pyrrolo[1,2-a][1,4]diazacyclopentadecine-2,3′-pyrano[2,3-c]quinolin]-6-yl]carbamate]",EC50,[1]; K+ salt,1.77 nM
same,IC50,[2]; K+ salt,0.014 nM
"COc1ccc2nc(C3CC3)c3c(c2c1)CC[C@]1(C[C@H]2C(=O)N[C@]4(C(=O)NS(=O)(=O)C5(C)CC5)C[C@H]4/C=C\CCCCC[C@H](NC(=O)OC4(C)CCC4)C(=O)N2C1)O3 [Example 152, 1-methylcyclobutyl [(2R,6S,12Z,13aS,14aR,16aS)-5′-cyclopropyl-9′-methoxy-14a-{[(1-methylcyclopropyl)sulfonyl]carbamoyl}-5,16-dioxo-1,1′,2′,5,6,7,8,9,10,11,13a,14,14a,15,16,16a-hexadecahydrospiro[cyclopropa[e]pyrrolo[1,2-a][1,4]diazacyclopentadecine-2,3′-pyrano[2,3-c]quinolin]-6-yl]carbamate]",EC50,[1]; K+ salt,0.729 nM
same,IC50,[2]; K+ salt,0.014 nM
"COc1ccc2nc(C3CC3)c3c(c2c1)CC[C@]1(C[C@H]2C(=O)N[C@]4(C(=O)NS(=O)(=O)C5(C)CC5)C[C@H]4/C=C\CCCCC[C@H](NC(=O)OCC(C)(C)C)C(=O)N2C1)O3 [Example 153, 2,2-dimethylpropyl [(2R,6S,12Z,13aS,14aR,16aS)-5′-cyclopropyl-9′-methoxy-14a-{[(1-methylcyclopropyl)sulfonyl]carbamoyl}-5,16-dioxo-1,1′,2′,5,6,7,8,9,10,11,13a,14,14a,15,16,16a-hexadecahydrospiro[cyclopropa[e]pyrrolo[1,2-a][1,4]diazacyclopentadecine-2,3′-pyrano[2,3-c]quinolin]-6-yl]carbamate]",EC50,[1]; K+ salt,1.86 nM
same,IC50,[2]; K+ salt,0.014 nM
"COc1ccc2nc(C(C)C)c3c(c2c1)CC[C@]1(C[C@H]2C(=O)N[C@]4(C(=O)NS(=O)(=O)C5(C)CC5)C[C@H]4/C=C\CCCCC[C@H](NC(=O)OCC(C)C)C(=O)N2C1)O3 [Example 154, 2-methylpropyl [(2R,6S,12Z,13aS,14aR,16aS)-9′-methoxy-14a-{[(1-methylcyclopropyl)sulfonyl]carbamoyl}-5,16-dioxo-5′-(propan-2-yl)-1,1′,2′,5,6,7,8,9,10,11,13a,14,14a,15,16,16a-hexadecahydrospiro[cyclopropa[e]pyrrolo[1,2-a][1,4]diazacyclopentadecine-2,3′-pyrano[2,3-c]quinolin]-6-yl]carbamate]",EC50,[1],1 nM
same,IC50,[2],0.014 nM
"COc1ccc2nc(C(C)C)c3c(c2c1)CC[C@]1(C[C@H]2C(=O)N[C@]4(C(=O)NS(=O)(=O)C5(C)CC5)C[C@H]4/C=C\CCCCC[C@H](NC(=O)OC4CCCC4)C(=O)N2C1)O3 [Example 155, cyclopentyl [(2R,6S,12Z,13aS,14aR,16aS)-9′-methoxy-14a-{[(1-methylcyclopropyl)sulfonyl]carbamoyl}-5,16-dioxo-5′-(propan-2-yl)-1,1′,2′,5,6,7,8,9,10,11,13a,14,14a,15,16,16a-hexadecahydrospiro[cyclopropa[e]pyrrolo[1,2-a][1,4]diazacyclopentadecine-2,3′-pyrano[2,3-c]quinolin]-6-yl]carbamate]",EC50,[1],1.17 nM
same,IC50,[2],0.015 nM
"CC(C)OC(=O)N[C@H]1CCCCC/C=C\[C@@H]2C[C@@]2(C(=O)NS(=O)(=O)C2(C)CC2)NC(=O)[C@@H]2C[C@]3(CCc4c(c(C(F)(F)F)nc5ccccc45)O3)CN2C1=O [Example 157, propan-2-yl [(2R,6S,12Z,13aS,14aR,16aS)-14a-{[(1-methylcyclopropyl)sulfonyl]carbamoyl}-5,16-dioxo-5′-(trifluoromethyl)-1,1′,2′,5,6,7,8,9,10,11,13a,14,14a,15,16,16a-hexadecahydrospiro[cyclopropa[e]pyrrolo[1,2-a][1,4]diazacyclopentadecine-2,3′-pyrano[2,3-c]quinolin]-6-yl]carbamate]",EC50,[1],1.72 nM
same,IC50,[2],0.02 nM
"CC(C)C1(OC(=O)N[C@H]2CCCCC/C=C\[C@@H]3C[C@@]3(C(=O)NS(=O)(=O)C3(C)CC3)NC(=O)[C@@H]3C[C@]4(CCc5c(c(C(F)(F)F)nc6ccccc56)O4)CN3C2=O)CC1 [Example 158, 1-(propan-2-yl)cyclopropyl [(2R,6S,12Z,13aS,14aR,16aS)-14a-{[(1-methylcyclopropyl)sulfonyl]carbamoyl}-5,16-dioxo-5′-(trifluoromethyl)-1,1′,2′,5,6,7,8,9,10,11,13a,14,14a,15,16,16a-hexadecahydrospiro[cyclopropa[e]pyrrolo[1,2-a][1,4]diazacyclopentadecine-2,3′-pyrano[2,3-c]quinolin]-6-yl]carbamate]",EC50,[1],1.17 nM
same,IC50,[2],0.02 nM
"CC1(OC(=O)N[C@H]2CCCCC/C=C\[C@@H]3C[C@@]3(C(=O)NS(=O)(=O)C3(C)CC3)NC(=O)[C@@H]3C[C@]4(CCc5c(c(C(F)(F)F)nc6ccccc56)O4)CN3C2=O)CC1 [Example 159, 1-methylcyclopropyl [(2R,6S,12Z,13aS,14aR,16aS)-14a-{[(1-methylcyclopropyl)sulfonyl]carbamoyl}-5,16-dioxo-5′-(trifluoromethyl)-1,1′,2′,5,6,7,8,9,10,11,13a,14,14a,15,16,16a-hexadecahydrospiro[cyclopropa[e]pyrrolo[1,2-a][1,4]diazacyclopentadecine-2,3′-pyrano[2,3-c]quinolin]-6-yl]carbamate]",EC50,[1],1.19 nM
same,IC50,[2],0.013 nM
"CC(C)COC(=O)N[C@H]1CCCCC/C=C\[C@@H]2C[C@@]2(C(=O)NS(=O)(=O)C2(C)CC2)NC(=O)[C@@H]2C[C@]3(CCc4c(c(C(F)(F)F)nc5ccccc45)O3)CN2C1=O [Example 160, 2-methylpropyl [(2R,6S,12Z,13aS,14aR,16aS)-14a-{[(1-methylcyclopropyl)sulfonyl]carbamoyl}-5,16-dioxo-5′-(trifluoromethyl)-1,1′,2′,5,6,7,8,9,10,11,13a,14,14a,15,16,16a-hexadecahydrospiro[cyclopropa[e]pyrrolo[1,2-a][1,4]diazacyclopentadecine-2,3′-pyrano[2,3-c]quinolin]-6-yl]carbamate]",EC50,[1]; K+ salt,1.82 nM
same,IC50,[2]; K+ salt,0.026 nM
Cc1nc2ccccc2c2c1O[C@]1(CC2)C[C@H]2C(=O)N[C@]3(C(=O)CS(=O)(=O)C4(C)CC4)C[C@H]3/C=C\CCCCC[C@H](NCCC3CCCC3)C(=O)N2C1 [Example 161],EC50,[1]; GETYPE1B|GT1B,3.02 nM
same,IC50,[2],0.138 nM
"Cc1nc2ccccc2c2c1O[C@]1(CC2)C[C@H]2C(=O)N[C@]3(C(=O)NS(=O)(=O)C4(C)CC4)C[C@H]3/C=C\CCCCC[C@H](N(CCC3CCCC3)CCC3CCCC3)C(=O)N2C1 [Example 162, (2R,6S,12Z,13aS,14aR,16aS)-6-[bis(2-cyclopentylethyl)amino]-5′-methyl-N-[(1-methylcyclopropyl)sulfonyl]-5,16-dioxo-1,1′,2′,6,7,8,9,10,11,13a,14,15,16,16a-tetradecahydrospiro[cyclopropa[e]pyrrolo[1,2-a][1,4]diazacyclopentadecine-2,3′-pyrano[2,3-c]quinoline]-14a(5H)-carboxamide]",EC50,[1],72 nM
same,IC50,[2],6.38 nM
"Cc1nc2ccccc2c2c1O[C@]1(CC2)C[C@H]2C(=O)N[C@]3(C(=O)NS(=O)(=O)C4(C)CC4)C[C@H]3/C=C\CCCCC[C@H](N(CCC(C)(C)C)CCC(C)(C)C)C(=O)N2C1 [Example 163, (2R,6S,12Z,13aS,14aR,16aS)-6-[bis(3,3-dimethylbutyl)amino]-5′-methyl-N-[(1-methylcyclopropyl)sulfonyl]-5,16-dioxo-1,1′,2′,6,7,8,9,10,11,13a,14,15,16,16a-tetradecahydrospiro[cyclopropa[e]pyrrolo[1,2-a][1,4]diazacyclopentadecine-2,3′-pyrano[2,3-c]quinoline]-14a(5H)-carboxamide]",EC50,[1],> 100 nM
same,IC50,[2],6.21 nM
"Cc1nc2ccccc2c2c1O[C@]1(CC2)C[C@H]2C(=O)N[C@]3(C(=O)NS(=O)(=O)C4(C)CC4)C[C@H]3/C=C\CCCCC[C@H](NCCC(C)(C)C)C(=O)N2C1 [Example 164, (2R,6S,12Z,13aS,14aR,16aS)-6-[(3,3-dimethylbutyl)amino]-5′-methyl-N-[(1-methylcyclopropyl)sulfonyl]-5,16-dioxo-1,1′,2′,6,7,8,9,10,11,13a,14,15,16,16a-tetradecahydrospiro[cyclopropa[e]pyrrolo[1,2-a][1,4]diazacyclopentadecine-2,3′-pyrano[2,3-c]quinoline]-14a(5H)-carboxamide]",EC50,[1],2.71 nM
same,IC50,[2],0.132 nM
"COc1ccc2nc(C(C)C)c3c(c2c1)CC[C@]1(C[C@H]2C(=O)N[C@]4(C(=O)NS(=O)(=O)C5(C)CC5)C[C@H]4/C=C\CCCCC[C@H](NC(=O)OC4(C)CC4)C(=O)N2C1)O3 [Example 165, 1-methylcyclopropyl [(2R,6S,12Z,13aS,14aR,16aS)-9′-methoxy-14a-{[(1-methylcyclopropyl)sulfonyl]carbamoyl}-5,16-dioxo-5′-(propan-2-yl)-1,1′,2′,5,6,7,8,9,10,11,13a,14,14a,15,16,16a-hexadecahydrospiro[cyclopropa[e]pyrrolo[1,2-a][1,4]diazacyclopentadecine-2,3′-pyrano[2,3-c]quinolin]-6-yl]carbamate]",EC50,[1],1.39 nM
same,IC50,[2],0.005 nM
